Data published in patent US20090221666A1, “STILBENE DERIVATIVES AND METHODS OF INHIBITING CANCER CELL GROWTH AND MICROBIAL GROWTH” (priority 2005, published 2009).

Key:
[1] = tested on: MCF-7 breast cancer cells; assay: Inhibition of growth of MCF-7 breast cancer cells (sulforhodamine B); assay type: cell-based, human
Procedure: (§1) Cytotoxicity assays were performed by the sulforhodamine B method, in which inhibition of formation of cellular protein is measured (Ref. 42). The mitotic index of MCF-7 breast cancer cells was determined as described previously (Ref. 27), except that cells were incubated in the presence of drug for 16 h prior to addition of the DNA stain.

[2] = tested on: Bovine brain tubulin; assay: Inhibition of tubulin assembly; assay type: biochemical; conditions: 1.0 mg/mL (10 μM) tubulin; read-out: Inhibition of tubulin assembly IC50 (μM) ± SD
Procedure: (§2) Bovine brain tubulin was prepared and the tubulin assembly and colchicine binding assays were performed as described previously. In the assembly assay, reaction mixtures contained 1.0 mg/mL (10 μM) tubulin and varying concentrations of potential inhibitors. In the colchicine binding assay reaction mixtures contained 0.1 mg/mL (1.0 μM) tubulin, 5.0 μM [^3H]colchicine, and potential inhibitor as indicated. The vinblastine binding assay was performed as described previously for GTP binding by centrifugal gel filtration, except that a Beckman Allegra 6KR centrifuge equipped with a GH-3.8A swinging bucket rotor was used and the syringe-columns were centrifuged at 2,000 rpm (Ref. 38-41). Reaction mixtures contained 0.5 mg/mL (5.0 μM) tubulin, 5 μM [^3H]vinblastine, potential inhibitor as indicated, 0.5 mM MgCl2, 0.1 M 4-morpholineethanesulfonate (1.0 M stock solution adjusted to pH 6.9 with NaOH, and 4% (v/v) dimethyl sulfoxide. Incubation (30 min) and centrifugal gel filtration were performed at room temperature (20-22° C.).

[3] = tested on: Bovine brain tubulin (colchicine site); assay: Inhibition of [3H]colchicine binding to tubulin; conditions: 50 μM inhibitor; 1.0 μM tubulin, 5.0 μM [3H]colchicine
Procedure: as §2

[4] = tested on: human cancer cell lines and murine P388; assay: cells; assay type: cell-based; conditions: mini-panel of human cancer cell lines
Procedure: as §1

[5] = tested on: MCF-7 breast cancer cells; assay: Mitotic index of MCF-7 cells; assay type: cell-based, human; conditions: 16 h at 10 times the IC50 concentration; without drug 2.9%
Procedure: as §1

[6] = tested on: DU145; assay: cells; assay type: cell-based, human; conditions: DU145
Procedure: as §1

[7] = tested on: SF-295; assay: cells; assay type: cell-based, human
Procedure: as §1

[8] = tested on: KM20L2; assay: cells; assay type: cell-based, human; conditions: KM20L2
Procedure: as §1

[9] = tested on: MCF-7; assay: cells; assay type: cell-based, human; conditions: MCF-7
Procedure: as §1

[10] = tested on: NCI-H460; assay: cells; assay type: cell-based, human
Procedure: as §1

[11] = tested on: BXPC-3; assay: cells; assay type: cell-based, human
Procedure: as §1

[12] = tested on: P388 lymphocytic leukemia cell line; assay type: cell-based; conditions: murine P388 lymphocytic leukemia cell line
Procedure: as §1

[13] = tested on: Bovine brain tubulin (vinca domain); assay: Inhibition of [3H]vinblastine binding to tubulin; conditions: 5.0 μM tubulin, 5 μM [3H]vinblastine
Procedure: as §2

## CC[C@H](C)[C@@H]([C@@H](CC(=O)N1CCC[C@H]1[C@H](OC)[C@@H](C)C(=O)Nc1cc(/C=C\c2cc(OC)c3c(c2)OCO3)ccc1OC)OC)N(C)C(=O)[C@@H](NC(=O)[C@H](C(C)C)N(C)C)C(C)C [Compound 16, 3,4-Methylenedioxy-5,4′-dimethoxy-3′-(Dov-Val-Dil-Dap)-amido-Z-stilbene]
[1]; MCF-7, read-out: Inhibition of growth of MCF-7 breast cancer cells IC50 (nM) ± SD
  IC50: 17 nM
[1]; relative to 1b
  times as active as hydrochloride 1b, MCF-7 cells: ~4 times
[1]; relative to 4a
  activity as fraction of D-10 (4a), MCF-7 cells: 1/200
[2]
  IC50: 1.3 ± 0.04 µM
[3]
  Inhibition of colchicine binding % Inhibition ± SD: 30 ± 2%
[4]
  inhibition of mini-panel of human cancer cell lines (in words): strongly inhibiting
[5]
  Mitotic index of MCF-7 cells % Mitoses: 57%
[6]
  Prostate DU145 GI50: 0.032 µg/mL
[7]
  CNS SF-295 GI50: 0.025 µg/mL
[8]
  Colon KM20L2 GI50: 0.020 µg/mL
[9]
  Breast MCF-7 GI50: 3.1 ng/mL
[10]
  Lung-NSC NCI-H460 GI50: 0.033 µg/mL
[11]
  Pancreas BXPC-3 GI50: 0.048 µg/mL
[12]
  Leukemia P388 ED50: <0.01 µg/mL
[13]; 10 μM inhibitor
  Inhibition of vinblastine binding % Inhibition ± SD: 48 ± 3%
[13]; 80 μM inhibitor
  Inhibition of vinblastine binding % Inhibition ± SD: 87 ± 2%
